Assay results published in patent US20240150356A1, “Pyrimidine amide compounds and use thereof” (ALPHALA CO., LTD., priority 2019, published 2024).

The compounds below were run on Hep3B cells (hepatocellular carcinoma cell line) (assay: In vitro MTS cell viability assay (NCI-60 methodology), Hep3B). Settings: Homo sapiens, 48 h, Table 1, MTS, 2 days drug incubation, 50% reduction vs time zero, read-out: Hep3B LC50.
Assay type: cell-based
Outline: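 Hep3B cells given five 2-fold dilutions of compound for 2 days, with viability by MTS measured at time zero and at end. LC50 is the concentration giving a 50% fall in viable cells relative to the start of treatment, per NCI-60 formula.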
Compound `Cn1ncc2c(NC(=O)c3ccc([N+](=O)[O-])s3)nc(-c3cccc(OC(F)(F)F)c3)nc21` [Compound 1-6, N-(1-methyl-6-(3-(trifluoromethoxy)phenyl)-1H-pyrazolo[3,4-d]pyrimidin-4-yl)-5-nitrothiophene-2-carboxamide] has an LC50 of 1470 nM.

Same assay, conditions: Homo sapiens, 48 h, Table 3, MTS, 2 days drug incubation, 50% reduction vs time zero, read-out: Hep3B LC50
With `Cc1nn(C)c2c(NC(=O)c3ccc([N+](=O)[O-])s3)nc(-c3cccc(OC(F)(F)F)c3)nc12` [Compound 3-4, N-(1,3-dimethyl-5-(3-(trifluoromethoxy)phenyl)-1H-pyrazolo[4,3-d]pyrimidin-7-yl)-5-nitrothiophene-2-carboxamide] the LC50 was 1510 nM.

Same assay, conditions: Homo sapiens, 48 h, Table 4, MTS, 2 days drug incubation, 50% reduction vs time zero, read-out: Hep3B LC50
Work on `CC(C)(C)OC(=O)N1CCC(n2cnc3c(NC(=O)c4ccc([N+](=O)[O-])s4)nc(-c4ccc(F)cc4)nc32)CC1` [Compound 4-20, tert-butyl 4-(2-(4-fluorophenyl)-6-(5-nitrothiophene-2-carboxamide)-9H-purin-9-yl) piperidine-1-carboxylate] yielded an LC50 greater than 1250 nM. `O=C(Nc1nc(-c2ccc(F)cc2)nc2c(-c3ccccc3)csc12)c1ccc([N+](=O)[O-])s1` [Compound 4-15, N-(2-(4-fluorophenyl)-7-phenylthieno[3,2-d]pyrimidin-4-yl)-5-nitrothiophene-2-carboxamide] was tested, and the LC50 was 620 nM. Compound `Cc1csc2c(NC(=O)c3ccc([N+](=O)[O-])s3)nc(-c3ccc(N(C)C)cc3)nc12` [Compound 4-10, N-(2-(4-(dimethylamino)phenyl)-7-methylthieno[3,2-d]pyrimidin-4-yl)-5-nitrothiophene-2-carboxamide] has an LC50 greater than 10000 nM.

Same assay, conditions: Homo sapiens, 48 h, Table 5, MTS, 2 days drug incubation, 50% reduction vs time zero, read-out: Hep3B LC50
`O=C(Nc1nc(-c2ccc(Cl)s2)nc2c1cnn2-c1ccccc1)c1ccc([N+](=O)[O-])s1` [Compound 5-19, N-(6-(5-chlorothiophen-2-yl)-1-phenyl-1H-pyrazolo[3,4-d]pyrimidin-4-yl)-5-nitrothiophene-2-carboxamide] showed an LC50 of 170 nM. `O=C(Nc1nc(OCCN2CCOCC2)nc2c1cnn2-c1ccccc1)c1ccc([N+](=O)[O-])s1` [Compound 5-12, N-(6-(2-morpholinoethoxy)-1-phenyl-1H-pyrazolo[3,4-d]pyrimidin-4-yl)-5-nitrothiophene-2-carboxamide] showed an LC50 greater than 3000 nM. In the case of `O=C(Nc1nc(-c2cccc(C(F)(F)F)c2)nc2c1cnn2-c1ccccc1)c1ccc([N+](=O)[O-])s1` [Compound 5-38, 5-nitro-N-(1-phenyl-6-(3-(trifluoromethyl)phenyl)-1H-pyrazolo[3,4-d]pyrimidin-4-yl)thiophene-2-carboxamide], the LC50 is reported as 450 nM. In the case of `CN(C)CCOc1nc(NC(=O)c2ccc([N+](=O)[O-])s2)c2cnn(-c3ccccc3)c2n1` [Compound 5-11, N-(6-(2-(dimethylamino)ethoxy)-1-phenyl-1H-pyrazolo[3,4-d]pyrimidin-4-yl)-5-nitrothiophene-2-carboxamide], the LC50 is reported as 4130 nM.

Same assay, conditions: Homo sapiens, 48 h, Table 6, MTS, 2 days drug incubation, 50% reduction vs time zero, read-out: Hep3B LC50
In the case of `COCCOc1ccc(-c2nc(NC(=O)c3ccc([N+](=O)[O-])s3)c3cnn(-c4ccc(C)cc4)c3n2)cn1` [Compound 6-12, N-(6-(6-(2-methoxyethoxy)pyridin-3-yl)-1-(p-tolyl)-1H-pyrazolo[3,4-d]pyrimidin-4-yl)-5-nitrothiophene-2-carboxamide], the LC50 is reported as 260 nM. `Cc1ccccc1-n1ncc2c(NC(=O)c3ccc([N+](=O)[O-])s3)nc(-c3ccc(F)nc3)nc21` [Compound 6-2] showed an LC50 greater than 3000 nM. `CC(C)(C)c1ccc(-n2ncc3c(NC(=O)c4ccc([N+](=O)[O-])s4)nc(N4CCC(F)(F)CC4)nc32)cc1` [Compound 6-67, N-(1(4-(tert-butyl)phenyl)-6-(4,4-difluoropiperidin-1-yl)-1H-pyrazolo[3,4-d]pyrimidin-4-yl)-5-nitrothiophene-2-carboxamide] showed an LC50 of 730 nM. In the case of `CC(C)(C)c1ccc(-n2ncc3c(NC(=O)c4ccc([N+](=O)[O-])s4)nc(-n4ccnc4)nc32)cc1` [Compound 6-74, N-(1-(4-(tert-butyl)phenyl)-6-(1H-imidazol-1-yl)-1H-pyrazolo[3,4-d]pyrimidin-4-yl)-5-nitrothiophene-2-carboxamide], the LC50 is reported as 330 nM. Compound `CCOc1cc(Cl)ccc1-c1nc(NC(=O)c2ccc([N+](=O)[O-])s2)c2cnn(-c3ccc(F)cc3)c2n1` [Compound 6-129, N-(6-(4-chloro-2-ethoxyphenyl)-1-(4-fluorophenyl)-1H-pyrazolo[3,4-d]pyrimidin-4-yl)-5-nitrothiophene-2-carboxamide] has an LC50 greater than 3000 nM. Compound `O=C(Nc1nc(N2CCC(F)(F)CC2)nc2c1cnn2-c1ccc(F)cc1)c1ccc([N+](=O)[O-])s1` [Compound 6-98, N-(6-(4,4-difluoropiperidin-1-yl)-1-(4-fluorophenyl)-1H-pyrazolo[3,4-d]pyrimidin-4-yl)-5-nitrothiophene-2-carboxamide] has an LC50 of 430 nM. Work on `O=C(Nc1nc(-c2ccc(Cl)cc2)nc2c1cnn2-c1cccc(F)c1)c1ccc([N+](=O)[O-])s1` [Compound 6-91, N-(6-(4-chlorophenyl)-1-(3-fluorophenyl)-1H-pyrazolo[3,4-d]pyrimidin-4-yl)-5-nitrothiophene-2-carboxamide] yielded an LC50 of 180 nM. `COc1ccc(-n2ncc3c(NC(=O)c4ccc([N+](=O)[O-])s4)nc(-c4ccc5c(c4)OCO5)nc32)cc1` [Compound 6-24, N-(6-(benzo[d][1,3]dioxol-5-yl)-1-(4-methoxyphenyl)-1H-pyrazolo[3,4-d]pyrimidin-4-yl)-5-nitrothiophene-2-carboxamide] showed an LC50 of 190 nM. `COCCN(C)c1ccc(-c2nc(NC(=O)c3ccc([N+](=O)[O-])s3)c3cnn(-c4cccc(F)c4)c3n2)cn1` [Compound 6-93] was tested, and the LC50 was 400 nM. `Cc1ccc(-n2ncc3c(NC(=O)c4ccc([N+](=O)[O-])s4)nc(-c4ccc(Cl)cc4)nc32)cc1` [Compound 6-7] showed an LC50 of 290 nM. With `CCOCCOCCOc1ccc(-c2nc(NC(=O)c3ccc([N+](=O)[O-])s3)c3cnn(-c4ccc(C)cc4)c3n2)cn1` [Compound 6-14] the LC50 was 220 nM. With `CCCOC[C@@H]1CCCN1c1nc(NC(=O)c2ccc([N+](=O)[O-])s2)c2cnn(-c3ccc(F)cc3)c2n1` [Compound 6-105, (S)—N-(1-(4-fluorophenyl)-6-(2-(propoxymethyl)pyrrolidin-1-yl)-1H-pyrazolo[3,4-d]pyrimidin-4-yl)-5-nitrothiophene-2-carboxamide] the LC50 was 420 nM. Work on `O=C(Nc1nc(-c2ccc(OC(F)(F)F)cc2)nc2c1cnn2-c1ccc(F)cc1)c1ccc([N+](=O)[O-])s1` [Compound 6-123, N-(1-(4-fluorophenyl)-6-(4-(trifluoromethoxy)phenyl)-1H-pyrazolo[3,4d]pyrimidin-4-yl)-5-nitrothiophene-2-carboxamide] yielded an LC50 of 340 nM.

Same assay, conditions: Homo sapiens, 48 h, Table 7, MTS, 2 days drug incubation, 50% reduction vs time zero, read-out: Hep3B LC50
For `O=C(Nc1nc(-c2ccc(OC(F)(F)F)cc2)nc2c1cnn2-c1ccc(C(F)(F)F)cn1)c1ccc([N+](=O)[O-])s1` [Compound 7-5, 5-nitro-N-(6-(4-(trifluoromethoxy)phenyl)-1-(5-(trifluoromethyl)pyridin-2-yl)-1H-pyrazolo[3,4-d]pyrimidin-4-yl)thiophene-2-carboxamide], the LC50 was 310 nM.

Same assay, conditions: Homo sapiens, 48 h, Table 8, MTS, 2 days drug incubation, 50% reduction vs time zero, read-out: Hep3B LC50
Compound `CCOC(=O)N1CCC(n2ncc3c(NC(=O)c4ccc([N+](=O)[O-])s4)nc(-c4ccc(F)nc4)nc32)C1` [Compound 8-5, ethyl (S)-3-(6-(6-fluoropyridin-3-yl)-4-(5-nitrothiophene-2-carboxamide)-1H-pyrazolo[3,4-d]pyrimidin-1-yl)pyrrolidine-1-carboxylate] has an LC50 greater than 2000 nM. Compound `C[C@@H]1C[C@@H](n2ncc3c(NC(=O)c4ccc([N+](=O)[O-])s4)nc(-c4ccc(Cl)cc4)nc32)CC(C)(C)C1` [Compound 8-15, N-(6-(4-chlorophenyl)-1-((1R,5S)-3,3,5-trimethylcyclohexyl)-1H-pyrazolo[3,4-d]pyrimidin-4-yl)-5-nitrothiophene-2-carboxamide] has an LC50 of 1270 nM. In the case of `C[C@@H]1C[C@@H](n2ncc3c(NC(=O)c4ccc([N+](=O)[O-])s4)nc(-c4ccc(F)cc4)nc32)CC(C)(C)C1` [Compound 8-13, N-(6-(4-fluorophenyl)-1-((1R,5S)-3,3,5-trimethylcyclohexyl)-1H-pyrazolo[3,4-d]pyrimidin-4-yl)-5-nitrothiophene-2-carboxamide], the LC50 is reported as 900 nM. Compound `C[C@@H]1C[C@@H](n2ncc3c(NC(=O)c4ccc([N+](=O)[O-])s4)nc(-c4ccc(Cl)nc4)nc32)CC(C)(C)C1` [Compound 8-16, N-(6-(6-chloropyridin-3-yl)-1-((1R,5S)-3,3,5-trimethylcyclohexyl)-1H-pyrazolo[3,4-d]pyrimidin-4-yl)-5-nitrothiophene-2-carboxamide] has an LC50 of 590 nM. Work on `CC(=O)N1CC[C@H](n2ncc3c(NC(=O)c4ccc([N+](=O)[O-])s4)nc(-c4ccc(F)nc4)nc32)C1` [Compound 8-2, (S)—N-(1-(1-acetylpyrrolidin-3-yl)-6-(6-fluoropyridin-3-yl)-1H-pyrazolo[3,4-d]pyrimidin-4-yl)-5-nitrothiophene-2-carboxamide] yielded an LC50 greater than 3000 nM.

Same assay, conditions: Homo sapiens, 48 h, Table 10, MTS, 2 days drug incubation, 50% reduction vs time zero, read-out: Hep3B LC50
`CC1(C)CCC(n2ncc3c(NC(=O)c4ccc([N+](=O)[O-])s4)nc(-c4ccc(F)nc4)nc32)CC1` [Compound 10-62, N-(1-(4,4-dimethylcyclohexyl)-6-(6-fluoropyridin-3-yl)-1H-pyrazolo[3,4-d]pyrimidin-4-yl)-5-nitrothiophene-2-carboxamide] showed an LC50 of 710 nM. `COC(=O)c1ccc(-c2nc(NC(=O)c3ccc([N+](=O)[O-])s3)c3cnn(C4CC(C)CC(C)C4)c3n2)cc1` (stereo not drawn) [Compound 10-71, methyl 4-(1-(3,5-dimethylcyclohexyl)-4-(5-nitrothiophene-2-carboxamido)-1H-pyrazolo[3,4-d]pyrimidin-6-yl)benzoate] gave an LC50 of 690 nM.
